Test results published in US8841309B2, “Substituted pyrazines and their use in the treatment of disease” (Boehringer Ingelheim International GmbH, priority 2012, dated 2014).
Structures can show the parent of a compound that is named as a salt.

Biological target: T1, ENaC (Mus musculus, UniProt Q61180+Q9WU38+Q9WU39)
T1 construct: Mouse kidney M-1 cells were cultivated in DMEM containing 5% FCS and 5 μM dexamethasone; endogenous in cells; host or cells: mouse kidney M-1 cells
T1 sequence (Q61180 1-699): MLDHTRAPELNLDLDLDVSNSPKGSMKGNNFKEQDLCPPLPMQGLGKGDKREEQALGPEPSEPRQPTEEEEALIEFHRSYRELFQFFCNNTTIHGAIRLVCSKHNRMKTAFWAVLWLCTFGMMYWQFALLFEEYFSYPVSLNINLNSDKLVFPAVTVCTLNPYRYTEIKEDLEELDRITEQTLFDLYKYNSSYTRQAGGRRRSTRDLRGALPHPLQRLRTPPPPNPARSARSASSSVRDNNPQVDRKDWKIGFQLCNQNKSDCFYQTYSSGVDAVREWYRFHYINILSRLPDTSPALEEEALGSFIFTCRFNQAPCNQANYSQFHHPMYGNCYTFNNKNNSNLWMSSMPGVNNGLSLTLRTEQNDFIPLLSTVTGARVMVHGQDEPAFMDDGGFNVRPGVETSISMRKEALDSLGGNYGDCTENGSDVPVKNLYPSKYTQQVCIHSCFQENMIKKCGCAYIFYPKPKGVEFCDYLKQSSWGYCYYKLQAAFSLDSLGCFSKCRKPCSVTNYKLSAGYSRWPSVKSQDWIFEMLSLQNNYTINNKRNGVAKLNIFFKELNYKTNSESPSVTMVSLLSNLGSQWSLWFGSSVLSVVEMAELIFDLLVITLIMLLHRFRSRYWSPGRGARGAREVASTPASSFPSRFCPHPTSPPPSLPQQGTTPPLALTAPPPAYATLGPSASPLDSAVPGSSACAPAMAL
T1 sequence (Q9WU38 1-638): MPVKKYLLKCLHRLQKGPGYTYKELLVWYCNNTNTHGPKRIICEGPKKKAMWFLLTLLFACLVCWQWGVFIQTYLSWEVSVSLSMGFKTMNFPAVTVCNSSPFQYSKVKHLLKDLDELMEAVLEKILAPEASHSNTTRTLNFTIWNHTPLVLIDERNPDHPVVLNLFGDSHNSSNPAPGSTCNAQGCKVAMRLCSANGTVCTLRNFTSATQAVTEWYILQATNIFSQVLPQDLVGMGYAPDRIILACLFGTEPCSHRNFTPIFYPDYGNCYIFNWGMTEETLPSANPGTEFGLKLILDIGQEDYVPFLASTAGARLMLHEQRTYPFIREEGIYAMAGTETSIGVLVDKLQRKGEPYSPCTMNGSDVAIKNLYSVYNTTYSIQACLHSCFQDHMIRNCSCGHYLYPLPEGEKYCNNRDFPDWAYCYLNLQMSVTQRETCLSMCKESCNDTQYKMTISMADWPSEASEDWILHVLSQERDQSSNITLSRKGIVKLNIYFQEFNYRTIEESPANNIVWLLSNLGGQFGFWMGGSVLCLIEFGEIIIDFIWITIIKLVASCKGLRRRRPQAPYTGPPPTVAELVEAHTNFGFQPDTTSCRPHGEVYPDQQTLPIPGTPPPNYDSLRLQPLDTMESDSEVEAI
T1 sequence (Q9WU39 1-655): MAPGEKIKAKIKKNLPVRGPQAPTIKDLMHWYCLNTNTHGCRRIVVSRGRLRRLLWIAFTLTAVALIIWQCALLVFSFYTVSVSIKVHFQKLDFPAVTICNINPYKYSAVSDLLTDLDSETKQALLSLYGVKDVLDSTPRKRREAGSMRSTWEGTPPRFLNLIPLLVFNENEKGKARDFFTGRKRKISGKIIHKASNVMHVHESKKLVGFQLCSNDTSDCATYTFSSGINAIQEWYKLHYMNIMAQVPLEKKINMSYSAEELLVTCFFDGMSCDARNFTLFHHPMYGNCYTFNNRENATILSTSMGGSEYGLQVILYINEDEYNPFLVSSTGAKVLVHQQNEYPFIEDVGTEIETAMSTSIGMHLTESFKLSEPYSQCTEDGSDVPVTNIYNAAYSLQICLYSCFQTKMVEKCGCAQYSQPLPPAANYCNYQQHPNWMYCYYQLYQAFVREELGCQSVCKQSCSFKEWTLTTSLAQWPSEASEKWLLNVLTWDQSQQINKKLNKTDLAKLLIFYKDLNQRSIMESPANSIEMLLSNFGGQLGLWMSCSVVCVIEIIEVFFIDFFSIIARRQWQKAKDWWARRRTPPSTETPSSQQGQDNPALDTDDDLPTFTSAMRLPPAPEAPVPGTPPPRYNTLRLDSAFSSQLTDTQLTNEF
Assay: Ussing chamber: short circuit current (I_sc) in mouse kidney M-1 cells, amiloride-sensitive
Type: cell-based
Settings: compound applied to apical solution, 37° C.
Protocol: Ussing Chamber: Mouse kidney M-1 cells were cultivated in DMEM containing 5% FCS and 5 μM dexamethasone for 10 to 12 days on polyester transwell filters. Filters were inserted into a teflon-coated well-plate which fit into the in-house ussing chamber system. Prior to measurement the medium of M-1 cells was replaced with Caco-2 transport buffer (Invitrogen, Germany). During measurements, the Ussing chamber temperature was kept at 37° C. Short circuit currents (I_sc) were measured in the voltage-clamp mode using an in-house built amplifier (Boehringer Ingelheim, Biberach) with the software package Lab View for data acquisition and analysis. The transepithelial electrical resistance (TEER) was determined by the application of voltage steps of ±5 mV every 5 sec. Compounds were administered at a final concentration of 3 μM or at increasing concentrations (1-3-10 μM) to the apical solution. At the end of each experiment the amiloride sensitive I_SC was measured by adding 3 μM amiloride to the apical compartment. Results are expressed as inhibition in percent of the amiloride effect or as IC50.

| Structure (SMILES) | IC50 [µM] |
| --- | --- |
| N#Cc1ccc(C[N+]23CCC(CC2)[C@H](NC(N)=NC(=O)c2nc(Cl)c(N)nc2N)C3)cc1 [Example 32] | 0.202 |
| NC(=NC(=O)c1nc(Cl)c(N)nc1N)N[C@@H]1C[N+]2(CC(=O)NCc3ccc(Cl)cc3)CCC1CC2 [Example 44] | 0.002 |
| NC(=NC(=O)c1nc(Cl)c(N)nc1N)N[C@@H]1C[N+]2(CC(=O)N3CCOCC3)CCC1CC2 [Example 57] | 0.071 |
| N/C(=N\C(=O)c1nc(Cl)c(N)nc1N)N[C@@H]1C[N+]2(Cc3ccc(C(F)(F)F)nc3)CCC1CC2 [Example 12, (S)-3-[N′-(3,5-Diamino-6-chloro-pyrazine-2-carbonyl)-guanidino]-1-(6-trifluoromethyl-pyridin-3-ylmethyl)-1-azonia-bicyclo[2.2.2]octane chloride] | 0.063 |
| NC(=NC(=O)c1nc(Cl)c(N)nc1N)N[C@@H]1C[N+]2(Cc3cscn3)CCC1CC2 [Example 35] | 0.15 |
| NC(=O)c1ccc(C[N+]23CCC(CC2)[C@H](NC(N)=NC(=O)c2nc(Cl)c(N)nc2N)C3)cc1 [Example 25] | 0.693 |
| COc1cc(C[N+]23CCC(CC2)C(N/C(N)=N/C(=O)c2nc(Cl)c(N)nc2N)C3)cc(OC)c1OC (stereo not shown) [Example 2, 3-[N′-(3,5-Diamino-6-chloro-pyrazine-2-carbonyl)-guanidino]-1-(3,4,5-trimethoxybenzyl)-1-azoniabicyclo[2.2.2]octane chloride] | 0.126 |
| N/C(=N\C(=O)c1nc(Cl)c(N)nc1N)NC1C[N+]2(Cc3ccccc3)CCC1CC2 (stereo not shown) [Example 4, 1-Benzyl-3-[N′-(3,5-diamino-6-chloro-pyrazine-2-carbonyl)-guanidino]-1-azoniabicyclo[2.2.2]octane bromide] | 0.043 |
| NC(=NC(=O)c1nc(Cl)c(N)nc1N)N[C@@H]1C[N+]2(Cc3ccncc3)CCC1CC2 [Example 45] | 0.279 |
| NC(=NC(=O)c1nc(Cl)c(N)nc1N)N[C@@H]1C[N+]2(Cc3ccc(SC(F)(F)F)cc3)CCC1CC2 [Example 48] | 0.023 |
| COc1ccc(C[N+]23CCC(CC2)[C@H](N/C(N)=N/C(=O)c2nc(Cl)c(N)nc2N)C3)cc1 [Example 7, (S)-3-[N′(3,5-Diamino-6-chloro-pyrazine-2-carbonyl)-guanidino]-1-(4-methoxybenzyl)-1-azoniabicyclo[2.2.2]octane chloride] | 0.02 |
| NC(=NC(=O)c1nc(Cl)c(N)nc1N)N[C@@H]1C[N+]2(Cc3nc4ccccc4s3)CCC1CC2 [Example 20] | 0.029 |
| C[N+]1(Cc2ccccc2)CC[C@H](NC(N)=NC(=O)c2nc(Cl)c(N)nc2N)C1 (stereo partly shown) [Example 71.2] | 0.113 |
| CN(Cc1ccccc1)C(=O)C[N+]1(C)CCC(NC(N)=NC(=O)c2nc(Cl)c(N)nc2N)CC1 (stereo not shown) [Example 72.2] | 0.076 |
| N/C(=N\C(=O)c1nc(Cl)c(N)nc1N)NC1C[N+]2(CC(=O)Nc3ccccc3)CCC1CC2 (stereo not shown) [Example 3, 3-[N′-(3,5-Diamino-6-chloro-pyrazine-2-carbonyl)-guanidino]-1-phenylcarbamoylmethyl-1-azoniabicyclo[2.2.2]octane chloride] | 0.026 |
| COc1cccc(C[N+]23CCC(CC2)[C@H](NC(N)=NC(=O)c2nc(Cl)c(N)nc2N)C3)c1 [Example 16] | 0.014 |
| CCNC(=O)C[N+]1(C)CCC[C@@H](NC(N)=NC(=O)c2nc(Cl)c(N)nc2N)C1 (stereo partly shown) [Example 70.3] | 0.26 |

| Structure (SMILES) | IC50 [µM] |
| --- | --- |
| NC(=NC(=O)c1nc(Cl)c(N)nc1N)N[C@@H]1C[N+]2(Cc3cccc(SC(F)(F)F)c3)CCC1CC2 [Example 9] | 0.003 |
| N#Cc1ccc(CNC(=O)C[N+]23CCC(CC2)[C@H](NC(N)=NC(=O)c2nc(Cl)c(N)nc2N)C3)cc1 [Example 63] | 0.03 |
| NC(=NC(=O)c1nc(Cl)c(N)nc1N)N[C@@H]1C[N+]2(CC3CCCCC3)CCC1CC2 [Example 53] | 0.07 |
| CCN(CC)C(=O)C[N+]12CCC(CC1)[C@H](NC(N)=NC(=O)c1nc(Cl)c(N)nc1N)C2 [Example 30] | 0.035 |
| C[N+]1(CC(=O)Nc2cccc(F)c2)CCC[C@H](NC(N)=NC(=O)c2nc(Cl)c(N)nc2N)C1 (mixture of isomers) [Example 70.4] | 0.031 |
| NC(=NC(=O)c1nc(Cl)c(N)nc1N)N[C@@H]1C[N+]2(Cc3nnsc3Cl)CCC1CC2 [Example 47] | 0.226 |
| N=C(NC(=O)c1nc(Cl)c(N)nc1N)N[C@@H]1C[N+]2(CC(=O)N3CCC(C(=O)O)CC3)CCC1CC2 [Example 73.2, (S)-1-[2-(4-Carboxy-piperidin-1-yl)-2-oxo-ethyl]-3-[N′-(3,5-diamino-6-chloro-pyrazine-2-carbonyl)-guanidino]-1-azonia-bicyclo[2.2.2]octane chloride hydrochloride] | 0.269 |
| CN(C(=O)C[N+]1(C)CCC(NC(N)=NC(=O)c2nc(Cl)c(N)nc2N)CC1)c1ccccc1 (stereo not shown) [Example 72.1] | 0.137 |
| NC(=NC(=O)c1nc(Cl)c(N)nc1N)N[C@@H]1C[N+]2(Cc3cccnc3)CCC1CC2 [Example 50] | 0.104 |
| CC[N+]1(CC(=O)Nc2cccc(F)c2)CCC(NC(N)=NC(=O)c2nc(Cl)c(N)nc2N)CC1 (stereo not shown) [Example 70.7] | 0.031 |
| Cc1nc(C[N+]23CCC(CC2)[C@H](NC(N)=NC(=O)c2nc(Cl)c(N)nc2N)C3)cs1 [Example 31] | 0.054 |
| COc1ccccc1C[N+]12CCC(CC1)[C@H](NC(N)=NC(=O)c1nc(Cl)c(N)nc1N)C2 [Example 22] | 0.092 |
| CN(CCc1ccccc1)C(=O)C[N+]12CCC(CC1)[C@H](NC(N)=NC(=O)c1nc(Cl)c(N)nc1N)C2 [Example 65] | 0.002 |
| CC(C)(C)OC(=O)C1CCN(C(=O)C[N+]23CCC(CC2)[C@H](NC(N)=NC(=O)c2nc(Cl)c(N)nc2N)C3)CC1 [Example 67, (S)-1-[2-(4-tert-butoxycarbonyl-piperidin-1-yl)-2-oxo-ethyl]-3-[N′-(3,5-diamino-6-chloro-pyrazine-2-carbonyl)-guanidino]-1-azonia-bicyclo[2.2.2]octane; chloride] | 0.04 |
| NC(=NC(=O)c1nc(Cl)c(N)nc1N)N[C@@H]1C[N+]2(CC(=O)NCC3CCOCC3)CCC1CC2 [Example 76] | 0.039 |
| CC#CC[N+]12CCC(CC1)[C@H](NC(N)=NC(=O)c1nc(Cl)c(N)nc1N)C2 [Example 23] | 0.172 |
| N/C(=N\C(=O)c1nc(Cl)c(N)nc1N)N[C@@H]1C[N+]2(Cc3ccccn3)CCC1CC2 [Example 13, (S)-3-[N′-(3,5-Diamino-6-chloro-pyrazine-2-carbonyl)-guanidino]-1-pyridin-2-ylmethyl-1-azoniabicyclo[2.2.2]octane chloride] | 0.09 |
